Measurements from paper PMC4252588 (FEBS letters, 2014).
Like-named read-outs stand apart in the source and are kept apart here.

What was measured:
[1] = target: T1, Y-CYP51A (Trypanosoma cruzi, UniProt Q7Z1V1, P355S); assay: Type 1 spectral response, substrate binding
[2] = target: T1, Y-CYP51A; assay: Reconstituted CYP51 activity assay, eburicol 14α-demethylation; assay type: biochemical
[3] = target: Tulahuen CYP51 (Trypanosoma cruzi, UniProt Q7Z1V1, A9G); assay: Type 1 spectral response, substrate binding
[4] = target: T2, Tulahuen CYP51 (Trypanosoma cruzi, UniProt Q7Z1V1); assay: Reconstituted CYP51 activity assay, eburicol 14α-demethylation; assay type: biochemical
[5] = tested on: Y strain T. cruzi amastigotes; assay: Cellular infection assay, human stage; assay type: cell-based, Trypanosoma cruzi
[6] = tested on: Y strain T. cruzi epimastigotes; assay: Insect stage; assay type: cell-based, Trypanosoma cruzi; settings: insect stage of Y T. cruzi; 1 µM
[7] = target: T2, Tulahuen CYP51; settings: Tulahuen T. cruzi CYP51; cited from earlier work
[8] = tested on: L. infantum CYP51; settings: cited from earlier work
[9] = target: T1, Y-CYP51A; assay: Type 2 spectral response titration with inhibitors; assay type: binding; settings: calculated from the Y-CYP51A titration curves; [P450] 0.4 µM
[10] = tested on: T. brucei CYP51; settings: cited from earlier work
[11] = tested on: Tulahuen strain of T. cruzi; settings: mice infected with Tulahuen strain; cited from earlier work
[12] = tested on: Tulahuen T. cruzi; settings: cells infected by Tulahuen T. cruzi; cited from earlier work
[13] = Tulahuen CYP51, inhibitor/enzyme/substrate 1:1:100, 1 h

SMILES: C=C(CCC(C)C1CCC2(C)C3=C(CCC12C)C1(C)CCC(O)C(C)(C)C1CC3)C(C)C (stereo not drawn) [Substrate, eburicol]
- Kd [1]: 1540 nM
- ΔA (% low-to-high spin transition) ([1]; Y-CYP51A): 48%
- Turnover number [2]: 2.0±0.2 nmol substrate/nmol P450 /min
- Kd [3]: 800 nM
- ΔA (% low-to-high spin transition) ([3]; Tulahuen CYP51): 36%
- Turnover number ([4]; Tulahuen CYP51): 5.6±0.3 nmol substrate/nmol P450 /min

SMILES: O=C(N[C@@H](Cn1ccnc1)c1ccc(-c2ccc(F)cc2)cc1F)c1ccc(-c2nnc(-c3ccccc3)o2)cc1 [VFV, (R)-N-(1-(3,4'-difluorobiphenyl-4-yl)-2-(1H-imidazol-1-yl)ethyl)-4-(5-phenyl-1,3,4-oxadiazol-2-yl)benzamide]
- Antiparasitic potency compared with VNI ([5]; human stage of Y T. cruzi, H9C2 cells, 48 h): higher antiparasitic potency
- Antiparasitic potency compared with VNI [6]: higher antiparasitic potency
- Inhibitory potency [7]: equally potent
- Inhibitory potency [8]: equally potent
- Apparent binding efficiency [9]: 87
- Inhibitory potency [10]: equally potent
- Inhibition at I/E/S molar ratio 1:1:100, one hour reaction [4, 13]: 100%

SMILES: O=C(N[C@@H](Cn1ccnc1)c1ccc(Cl)cc1Cl)c1ccc(-c2nnc(-c3ccccc3)o2)cc1 [VNI, (R)-N-(1-(2,4-dichlorophenyl)-2-(1H-imidazol-1-yl)ethyl)-4-(5-phenyl-1,3,4-oxadiazol-2-yl)benzamide]
- EC50 ([5]; Trypanosoma cruzi, Vero, in Homo sapiens): > 5 nM
- Amastigotes within host cells after treatment ([5]; cardiomyoblasts and Vero cells, up to 1 µM): some trace of amastigotes being observed
- Outcome of treatment [11]: cure both the acute and chronic models of Chagas disease
- Apparent binding efficiency [9]: 9
- Concentration that completely eradicates the parasite [12]: 8 nM
- EC50 [12]: 1.3 nM
- Inhibition at I/E/S molar ratio 1:1:100, one hour reaction [4]: 100%
- Inhibition of the enzyme [4]: completely inhibited

SMILES: O=C(N[C@@H](Cn1cncn1)c1ccc(Cl)cc1Cl)c1ccc(-c2nnc(-c3ccccc3)o2)cc1 [VNT, (R)-N-(1-(2,4-dichlorophenyl)-2-(1H-1,2,4-triazol-1-yl)ethyl)-4-(5-phenyl-1,3,4-oxadiazol-2-yl)benzamide]
- Inhibitory potency [7]: as potent as VNI
- Inhibitory potency [8]: weaker inhibitory effect
- Apparent binding efficiency [9]: 2
- Inhibitory potency [10]: weaker inhibitory effect
- Inhibition of the enzyme ([4]; Tulahuen CYP51, equimolar amounts of inhibitor): completely inhibited
- Inhibition at I/E/S molar ratio 1:1:100, one hour reaction [4, 13]: 100%
